Experiments:
human DGAT1 = target: T1, human DGAT1 (Homo sapiens, UniProt O75907); test: DGAT Scintillation Proximity Assay (SPA) with membranes of insect cells expressing human flagtag DGAT1; format: biochemical; settings: read-out: hDGAT1 IC50
T1 construct: made in house; host or cells: insect cells (sf9, sf21 or High Five) infected with baculovirus; total cell membranes
T1 sequence (O75907 1-488): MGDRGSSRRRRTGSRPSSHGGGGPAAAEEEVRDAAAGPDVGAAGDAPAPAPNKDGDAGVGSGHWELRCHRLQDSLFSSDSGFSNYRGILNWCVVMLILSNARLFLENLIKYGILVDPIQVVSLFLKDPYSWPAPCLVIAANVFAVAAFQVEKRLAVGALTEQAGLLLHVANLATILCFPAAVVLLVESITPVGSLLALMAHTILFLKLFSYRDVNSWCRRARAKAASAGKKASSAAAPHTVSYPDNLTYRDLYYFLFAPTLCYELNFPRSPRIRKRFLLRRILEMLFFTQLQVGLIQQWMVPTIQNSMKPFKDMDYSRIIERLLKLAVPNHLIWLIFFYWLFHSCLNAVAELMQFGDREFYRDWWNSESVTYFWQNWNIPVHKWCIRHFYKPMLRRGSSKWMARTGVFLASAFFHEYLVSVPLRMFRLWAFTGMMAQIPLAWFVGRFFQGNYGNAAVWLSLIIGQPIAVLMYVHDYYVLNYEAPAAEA
Method in brief: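 Membranes (0.2 μg/well) from insect cells expressing human flag-tagged DGAT1 incubated with 10 μM compound and 200 μM dioleoyl glycerol substrate; mercuric chloride as inhibition control. Reaction stopped with WGA SPA beads in mercuric chloride, overnight bead coupling, then scintillation proximity signal read.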

Row | SMILES | IC50 (human DGAT1) | melting point
1 | CC1(C)Oc2ncnc(N)c2N=C1c1ccc([C@H]2CC[C@H](CN3CCC(Cc4ccccc4)CC3)CC2)cc1 [Example 2-228] | > 100 nM | 119 to 120 °C
2 | CC1(C)Oc2ncnc(N)c2NC1c1ccc(C2CCCCC2)cc1 (stereo not drawn) [Example 2-22] | > 100 nM | > 230 °C
3 | CC1(C)Oc2ncnc(N)c2N=C1c1ccc([C@H]2CC[C@H](CCN3CCC(O)CC3)CC2)cc1 [Example 2-84] | > 100 nM | 217 to 218 °C
4 | CC1(C)Oc2ncnc(N)c2N=C1c1ccc([C@H]2CC[C@H](CCC(=O)N3CCC(O)CC3)CC2)cc1 [Example 2-180] | 10 to 100 nM | 200 to 202 °C

Continued, values first:

Row | IC50 (human DGAT1) | melting point | SMILES
5 | 10 to 100 nM | 199 to 200 °C | CC1(C)Oc2ncnc(N)c2N=C1c1ccc([C@H]2CC[C@H](CC(=O)N3CCOCC3)CC2)cc1 [Example 2-95]
6 | 10 to 100 nM | 212 °C | CC1(C)Oc2ncnc(N)c2N=C1c1ccc([C@H]2CC[C@H](NS(N)(=O)=O)CC2)cc1 [Example 2-218]
7 | 10 to 100 nM | 225 to 226 °C | Cc1nc(N)c2c(n1)OC(C)(C)C(c1ccc([C@H]3CC[C@H](Cc4nc(=O)s[nH]4)CC3)cc1)=N2 [Example 2-152]
8 | 10 to 100 nM | 201 to 202 °C | CC1(C)Oc2ncnc(N)c2N=C1c1ccc([C@H]2CC[C@H](C(=O)N3CCCC3)CC2)cc1 [Example 2-235]
9 | 10 to 100 nM | 240 to 241 °C | Cc1nc(N)c2c(n1)OC(C)(C)C(c1ccc([C@H]3CC[C@H](CN4CCOC4=O)CC3)cc1)=N2 [Example 2-158]
